Laboratory results as given in ChEMBL document CHEMBL5316344, “Homologation of the Alkyl Side Chain of Antimitotic Phenyl 4-(2-Oxo-3-alkylimidazolidin-1-yl)benzenesulfonate Prodrugs Selectively Targeting CYP1A1-Expressing Breast Cancers Improves Their Stability in Rodent Liver Microsomes” (J Med Chem, 2023).
pIC50, pKi: −log10 of the molar value.

What was measured:
[1] = system: HT-29; assay: Antiproliferative activity against human HT-29 cells assessed as cell growth inhibition incubated for 48 hrs by sulforhodamine B assay; type: functional, cell-based; settings: HT-29, 48 h
[2] = system: M21; assay: Antiproliferative activity against human M21 cells assessed as cell growth inhibition incubated for 48 hrs by sulforhodamine B assay; type: functional, cell-based; settings: M21, 48 h
[3] = system: MCF7; assay: Antiproliferative activity against human MCF7 cells expressing CYP1A1 assessed as cell growth inhibition incubated for 48 hrs by sulforhodamine B assay; type: functional, cell-based; settings: MCF7, 48 h
[4] = Selectivity ratio, ratio of IC50 for antiproliferative activity against human M21 cells to IC50 for antiproliferative activity against human MCF7 cells expressing CYP1A1; type: functional
[5] = Selectivity ratio, ratio of IC50 for antiproliferative activity against human HT-29 cells to IC50 for antiproliferative activity against human MCF7 cells expressing CYP1A1; type: functional
[6] = Stability in rat liver microsomes assessed as intrinsic clearance incubated for 60 mins by HPLC analysis; type: ADME, Microsome; settings: read-out: CLH
[7] = Stability in rat liver microsomes assessed as half life incubated for 60 mins by HPLC analysis; type: ADME, Microsome
[8] = Stability in human liver microsomes assessed as intrinsic clearance incubated for 60 mins by HPLC analysis; type: ADME, Microsome; settings: read-out: CLH
[9] = Stability in human liver microsomes assessed as half life incubated for 60 mins by HPLC analysis; type: ADME, Microsome
[10] = Stability in mouse liver microsomes assessed as half life incubated for 60 mins by HPLC analysis; type: ADME, Microsome
[11] = Stability in mouse liver microsomes assessed as intrinsic clearance incubated for 60 mins by HPLC analysis; type: ADME, Microsome; settings: read-out: CLH
[12] = target: T1, Cytochrome P450 1A1 (Homo sapiens, UniProt P04798); assay: Binding affinity to human CYP1A1 assessed as inhibition of conversion of 7-ethoicyresorufin into fluorescent resorufin by measuring inhibition constant preincubated for 5 mins followed by […] addition measured every minute for 15 mins by EROD assay; type: ADME
T1 sequence (P04798 whole entry): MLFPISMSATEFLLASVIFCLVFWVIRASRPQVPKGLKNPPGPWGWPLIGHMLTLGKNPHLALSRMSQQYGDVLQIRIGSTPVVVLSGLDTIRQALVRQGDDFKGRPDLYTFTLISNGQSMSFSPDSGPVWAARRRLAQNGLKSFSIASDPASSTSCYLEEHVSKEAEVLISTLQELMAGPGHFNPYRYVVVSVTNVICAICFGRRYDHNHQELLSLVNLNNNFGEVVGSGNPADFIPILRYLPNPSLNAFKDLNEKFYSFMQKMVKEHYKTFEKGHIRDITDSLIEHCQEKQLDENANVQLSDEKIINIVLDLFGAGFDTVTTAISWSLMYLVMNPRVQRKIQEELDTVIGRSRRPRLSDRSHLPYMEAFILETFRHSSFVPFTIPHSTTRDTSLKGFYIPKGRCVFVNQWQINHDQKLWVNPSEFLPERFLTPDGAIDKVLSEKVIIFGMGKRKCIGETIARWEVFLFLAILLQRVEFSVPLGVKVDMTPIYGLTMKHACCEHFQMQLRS

SMILES	pIC50 [1]	pIC50 [2]	pIC50 [3]	also measured
CCCCCN1CCN(c2ccc(S(=O)(=O)Oc3cccc(OC)c3)cc2)C1=O	< 4.90	< 4.90	6.59	Ratio IC50 [4]: >48; Ratio IC50 [5]: >48
CCCCCCCCN1CCN(c2ccc(S(=O)(=O)Oc3cc(OC)c(OC)c(OC)c3)cc2)C1=O	< 5.90	< 5.90	< 5.90	
CCCCCCCCN1CCN(c2ccc(S(=O)(=O)Oc3cccc(OC)c3)cc2)C1=O	< 5.60	< 5.60	< 5.60	
CCCCCCN1CCN(c2ccc(S(=O)(=O)Oc3cccc(Br)c3)cc2)C1=O	< 5.90	< 5.90	< 5.90	
CCCCCN1CCN(c2ccc(S(=O)(=O)Oc3ccccc3)cc2)C1=O	< 4.60	< 4.60	< 4.60	
CCCCN1CCN(c2ccc(S(=O)(=O)Oc3cccc(Cl)c3)cc2)C1=O				microsomal CLint [6]: 65 µL/min/mg; half-life [7]: 22 min; microsomal CLint [8]: 11 µL/min/mg; half-life [9]: 126 min; half-life [10]: 13.3 min; microsomal CLint [11]: 104 µL/min/mg
CCCCCCCCN1CCN(c2ccc(S(=O)(=O)Oc3ccccc3)cc2)C1=O	< 5.90	< 5.90	< 5.90	
CCCCCN1CCN(c2ccc(S(=O)(=O)Oc3cccc(F)c3)cc2)C1=O	< 4.90	< 4.90	5.92	Ratio IC50 [4]: >10; Ratio IC50 [5]: >10
O=c1cc(-c2ccccc2)oc2c1ccc1ccccc12 [ALPHA-NAPHTHOFLAVONE]				pKi [12]: 7.30
CCCCCN1CCN(c2ccc(S(=O)(=O)Oc3cc(F)cc(F)c3)cc2)C1=O	< 4.90	< 4.90	6.00	Ratio IC50 [4]: >13; Ratio IC50 [5]: >13
CCCCCCCCN1CCN(c2ccc(S(=O)(=O)Oc3cccc(F)c3)cc2)C1=O	< 5.90	< 5.90	< 5.90	
CCCCCCCCN1CCN(c2ccc(S(=O)(=O)Oc3ccc(OC)c(OC)c3)cc2)C1=O	< 5.90	< 5.90	< 5.90	
CCCCCCN1CCN(c2ccc(S(=O)(=O)Oc3cc(OC)cc(OC)c3)cc2)C1=O	< 5.90	< 5.90	< 5.90	
CCCCCCCCN1CCN(c2ccc(S(=O)(=O)Oc3ccc(F)c(F)c3)cc2)C1=O	< 5.90	< 5.90	< 5.90	
CCCCCCCCN1CCN(c2ccc(S(=O)(=O)Oc3cccc(Cl)c3)cc2)C1=O	< 5.90	< 5.90	< 5.90	
CCCCN1CCN(c2ccc(S(=O)(=O)Oc3cc(OC)cc(OC)c3)cc2)C1=O				microsomal CLint [6]: 15 µL/min/mg; half-life [7]: 93 min; microsomal CLint [8]: 20.7 µL/min/mg; half-life [9]: 67 min; half-life [10]: 10.5 min; microsomal CLint [11]: 133 µL/min/mg
CCCCCN1CCN(c2ccc(S(=O)(=O)Oc3ccc(F)c(F)c3)cc2)C1=O	< 4.90	< 4.90	< 4.90	
CCCCCCCCN1CCN(c2ccc(S(=O)(=O)Oc3cc(F)cc(F)c3)cc2)C1=O	< 5.90	< 5.90	< 5.90	
CCCCN1CCN(c2ccc(S(=O)(=O)Oc3cc(Cl)cc(Cl)c3)cc2)C1=O				microsomal CLint [6]: 29 µL/min/mg; half-life [7]: 47 min; microsomal CLint [8]: 16 µL/min/mg; half-life [9]: 89 min; half-life [10]: 15.4 min; microsomal CLint [11]: 90 µL/min/mg
CCCCCCCCN1CCN(c2ccc(S(=O)(=O)Oc3cc(Cl)cc(Cl)c3)cc2)C1=O	< 5.90	< 5.90	< 5.90	
CCCCCCN1CCN(c2ccc(S(=O)(=O)Oc3cccc(Cl)c3)cc2)C1=O	< 5.60	< 5.60	5.74	Ratio IC50 [4]: >1.4; Ratio IC50 [5]: >1.4
CCCCCCN1CCN(c2ccc(S(=O)(=O)Oc3cc(F)cc(F)c3)cc2)C1=O	< 5.60	< 5.60	6.40	Ratio IC50 [4]: >6.3; Ratio IC50 [5]: >6.3
CCCCCN1CCN(c2ccc(S(=O)(=O)Oc3ccc(OC)cc3)cc2)C1=O	< 4.90	< 4.90	< 4.90	

SMILES	pIC50 [1]	pIC50 [2]	pIC50 [3]	also measured
CCCCCCCCN1CCN(c2ccc(S(=O)(=O)Oc3cc(Br)cc(Br)c3)cc2)C1=O	< 5.90	< 5.90	< 5.90	
CCCCCCN1CCN(c2ccc(S(=O)(=O)Oc3cc(Br)cc(Br)c3)cc2)C1=O	< 5.90	6.14	6.92	Ratio IC50 [4]: 6.1; Ratio IC50 [5]: >10
CCCCCCCCN1CCN(c2ccc(S(=O)(=O)Oc3ccc(OC)cc3)cc2)C1=O	< 5.90	< 5.90	< 5.90	
CCCCN1CCN(c2ccc(S(=O)(=O)Oc3cccc(I)c3)cc2)C1=O				microsomal CLint [6]: 109 µL/min/mg; half-life [7]: 12.7 min; microsomal CLint [8]: 14 µL/min/mg; half-life [9]: 100 min; half-life [10]: 12.3 min; microsomal CLint [11]: 109 µL/min/mg
CCCCCN1CCN(c2ccc(S(=O)(=O)Oc3ccccc3OC)cc2)C1=O	< 4.90	< 4.90	< 4.90	
CCCCCCN1CCN(c2ccc(S(=O)(=O)Oc3ccccc3OC)cc2)C1=O	< 5.60	< 5.60	< 5.60	
CCCCCCCCN1CCN(c2ccc(S(=O)(=O)Oc3cccc(Br)c3)cc2)C1=O	< 5.90	< 5.90	< 5.90	
CCCCCCN1CCN(c2ccc(S(=O)(=O)Oc3cc(OC)c(OC)c(OC)c3)cc2)C1=O	< 5.60	< 5.60	6.85	Ratio IC50 [4]: >18; Ratio IC50 [5]: >18
CCCCCCN1CCN(c2ccc(S(=O)(=O)Oc3cccc(OC)c3)cc2)C1=O	< 5.60	< 5.60	< 5.60	
CCCCCCN1CCN(c2ccc(S(=O)(=O)Oc3cccc(I)c3)cc2)C1=O	< 5.90	< 5.90	5.96	Ratio IC50 [4]: >1.1; Ratio IC50 [5]: >1.1
CCCCCCCCN1CCN(c2ccc(S(=O)(=O)Oc3cccc(I)c3)cc2)C1=O	< 5.90	< 5.90	< 5.90	
CCCN1CCN(c2ccc(S(=O)(=O)Oc3cc(OC)c(OC)c(OO)c3)cc2)C1=O				microsomal CLint [6]: 19.5 µL/min/mg; half-life [7]: 71 min; microsomal CLint [8]: 13 µL/min/mg; half-life [9]: 109 min; half-life [10]: 8 min; microsomal CLint [11]: 174 µL/min/mg
CCCCCN1CCN(c2ccc(S(=O)(=O)Oc3cccc(Br)c3)cc2)C1=O	< 4.90	< 4.90	6.52	Ratio IC50 [4]: >42; Ratio IC50 [5]: >42
CCCCCCN1CCN(c2ccc(S(=O)(=O)Oc3cc(Cl)cc(Cl)c3)cc2)C1=O	< 5.90	< 5.90	6.60	Ratio IC50 [4]: >5; Ratio IC50 [5]: >5
CCCCCCN1CCN(c2ccc(S(=O)(=O)Oc3ccc(OC)c(OC)c3)cc2)C1=O	< 5.90	< 5.90	< 5.90	
CCCCCCN1CCN(c2ccc(S(=O)(=O)Oc3cccc(F)c3)cc2)C1=O	< 5.60	< 5.60	< 5.60	
CCCCCCN1CCN(c2ccc(S(=O)(=O)Oc3ccc(OC)cc3)cc2)C1=O	< 5.90	< 5.90	< 5.90	
CCCCCCN1CCN(c2ccc(S(=O)(=O)Oc3ccc(F)c(F)c3)cc2)C1=O	< 5.60	< 5.60	< 5.60	
CCCCCN1CCN(c2ccc(S(=O)(=O)Oc3ccc(OC)c(OC)c3)cc2)C1=O	< 4.90	6.30	6.15	Ratio IC50 [4]: >18; Ratio IC50 [5]: >18
CCCCCN1CCN(c2ccc(S(=O)(=O)Oc3cc(Br)cc(Br)c3)cc2)C1=O	< 6.30	< 6.30	< 6.30	
CCCCCCCCN1CCN(c2ccc(S(=O)(=O)Oc3cc(OC)cc(OC)c3)cc2)C1=O	< 5.60	< 5.60	< 5.60	
CCCCCCCCN1CCN(c2ccc(S(=O)(=O)Oc3ccccc3OC)cc2)C1=O	< 5.60	< 5.60	< 5.60	
CCCCCCN1CCN(c2ccc(S(=O)(=O)Oc3ccccc3)cc2)C1=O	< 5.60	< 5.60	< 5.60	
